Laboratory results from the NIST ThermoML archive (doi:10.1016/j.fluid.2018.04.012).

Assay: xn = mol fraction of the nth substance listed
Conditions: Liquid, Vibrating tube method

CC(C)OC(C)C [diisopropyl ether] + CC(C)O
mass density [kg/m3]
Conditions	x2 = 0.1503	x2 = 0.2979	x2 = 0.4228	x2 = 0.5	x2 = 0.6737	x2 = 0.8483
298.15 K, 100 kPa	725.5	732.6	739.4	743.7	754.9	768
298.15 K, 1000 kPa	726.6	733.6	740.5	744.7	755.8	768.9
298.15 K, 5000 kPa	731.3	738.2	744.8	749	759.9	772.6
298.15 K, 10000 kPa	736.8	743.6	749.9	754	764.7	777.1
298.15 K, 15000 kPa	742.1	748.6	754.6	758.8	769.1	781.3
298.15 K, 20000 kPa	746.8	753.2	759.2	763.2	773.4	785.2
298.15 K, 25000 kPa	751.4	757.6	763.5	767.5	777.4	789
298.15 K, 30000 kPa	755.7	761.9	767.6	771.5	781.2	792.6
298.15 K, 35000 kPa	759.7	765.8	771.5	775.2	784.8	796
298.15 K, 40000 kPa	763.6	769.6	775.2	778.9	788.3	799.3
298.15 K, 45000 kPa	767.4	773.2	778.8	782.4	791.7	802.6
298.15 K, 50000 kPa	770.9	776.7	782.2	785.8	794.9	805.6
298.15 K, 55000 kPa	774.4	780.1	785.5	789	798.1	808.6
298.15 K, 60000 kPa	777.7	783.3	788.7	792.1	801.1	811.5
298.15 K, 65000 kPa	780.9	786.5	791.8	795.2	804	814.3
298.15 K, 70000 kPa	784	789.5	794.8	798.2	806.8	817.1
298.15 K, 80000 kPa	789.9	795.3	800.5	803.8	812.3	822.3
298.15 K, 90000 kPa	795.6	800.8	805.9	809.1	817.5	827.3
298.15 K, 100000 kPa	800.8	806	810.9	814.2	822.4	832
298.15 K, 110000 kPa	805.8	811	815.8	818.9	827.1	836.6
298.15 K, 120000 kPa	810.5	815.6	820.4	823.5	831.5	840.8
298.15 K, 130000 kPa	815.1	820.1	824.8	827.9	835.7	844.9
298.15 K, 140000 kPa	819.5	824.4	829	832.1	839.8	848.9
313.15 K, 100 kPa	709.6	716.9	724	728.5	740.2	754
313.15 K, 1000 kPa	710.8	718.1	725.1	729.6	741.3	755
313.15 K, 5000 kPa	716.3	723.3	730	734.4	745.9	759.2
313.15 K, 10000 kPa	722.4	729.3	735.7	740.1	751.1	764.1
313.15 K, 15000 kPa	728.1	734.8	741	745.3	756	768.7
313.15 K, 20000 kPa	733.4	739.9	746	750.2	760.7	773
313.15 K, 25000 kPa	738.2	744.6	750.7	754.6	764.8	776.9
313.15 K, 30000 kPa	743.1	749.4	755.1	759.2	769.2	781
313.15 K, 35000 kPa	747.6	753.6	759.3	763.3	773.1	784.7
313.15 K, 40000 kPa	751.7	757.7	763.4	767.2	776.8	788.2
313.15 K, 45000 kPa	755.7	761.6	767.2	770.9	780.4	791.7
313.15 K, 50000 kPa	759.5	765.4	770.9	774.5	783.9	794.9
313.15 K, 55000 kPa	763.3	769	774.4	778.1	787.3	798.1
313.15 K, 60000 kPa	766.8	772.5	777.8	781.4	790.5	801.2
313.15 K, 65000 kPa	770.2	775.8	781.1	784.7	793.7	804.2
313.15 K, 70000 kPa	773.5	779	784.3	787.7	796.6	807
313.15 K, 80000 kPa	779.6	785.1	790.3	793.6	802.3	812.5
313.15 K, 90000 kPa	785.6	790.9	796	799.3	807.8	817.8
313.15 K, 100000 kPa	791.2	796.3	801.3	804.5	812.9	822.7
313.15 K, 110000 kPa	796.4	801.5	806.4	809.6	817.9	827.5
313.15 K, 120000 kPa	801.3	806.4	811.2	814.4	822.4	832
313.15 K, 130000 kPa	806.2	811.2	815.8	819	826.9	836.3
313.15 K, 140000 kPa	810.9	815.8	820.2	823.5	831.3	840.6
333.15 K, 100 kPa	687.4	694.9	702.4	707	719.4	734.1
333.15 K, 1000 kPa	689	696.4	703.7	708.4	720.7	735.3
333.15 K, 5000 kPa	695.4	702.6	709.5	714.2	726.1	740.2
333.15 K, 10000 kPa	702.7	709.6	716.1	720.7	732.2	745.8
333.15 K, 15000 kPa	709.3	716	722.3	726.8	737.9	751.1
333.15 K, 20000 kPa	715.3	721.8	728	732.3	743.1	755.9
333.15 K, 25000 kPa	720.9	727.3	733.3	737.5	748	760.5
333.15 K, 30000 kPa	726.2	732.4	738.3	742.4	752.6	764.9
333.15 K, 35000 kPa	731.1	737.2	743	747	757	769
333.15 K, 40000 kPa	735.8	741.7	747.4	751.4	761.2	772.9
333.15 K, 45000 kPa	740.2	746	751.7	755.4	765.1	776.6
333.15 K, 50000 kPa	744.4	750.2	755.7	759.4	768.9	780.3
333.15 K, 55000 kPa	748.4	754.1	759.6	763.2	772.6	783.8
333.15 K, 60000 kPa	752.2	757.8	763.3	766.8	776.1	787
333.15 K, 65000 kPa	756	761.5	766.9	770.4	779.4	790.3
333.15 K, 70000 kPa	759.5	765	770.3	773.7	782.7	793.5
333.15 K, 80000 kPa	766.3	771.6	776.8	780.1	788.9	799.3
333.15 K, 90000 kPa	772.6	777.8	782.9	786.2	794.8	805
333.15 K, 100000 kPa	778.5	783.6	788.6	791.8	800.2	810.2
333.15 K, 110000 kPa	784.1	789.2	794	797.3	805.5	815.3
333.15 K, 120000 kPa	789.4	794.4	799.1	802.3	810.4	820.1
333.15 K, 130000 kPa	794.5	799.4	804	–	–	–
